Measurements taken from patent US11760762B2, “Thienopyranones and furanopyranones as kinase, bromodomain, and checkpoint inhibitors” (SignalRx Pharmaceuticals, Inc., priority 2017, dated 2023).
Counter-ions that a name gives are not always drawn. Like-named read-outs stand apart in the source and are kept apart here.

Experiments:
Huh7 = assay: Hepatocellular carcinoma cell viability, AlamarBlue; assay type: cell-based; conditions: Homo sapiens, Huh-7; 24 hours; read-out: Hepatocarcinoma Cell Line IC50 Values Huh7
Method: (§1) Cells were seeded into 96-well plate at 1×10^4 cell per well in complete medium+10% FCS and incubated for 24 hours prior to the addition of compounds at concentrations ranging from 50 μM to 50 nM. Cell viability was quantitated 24 hours after the addition of compounds using AlamarBlue® viable cell detection reagent. IC50 curves were determined using Graphpad Prism software.

Hep3B = assay: as above; assay type: cell-based; conditions: Homo sapiens, 24 hours, read-out: Hepatocarcinoma Cell Line IC50 Values Hep3B
Method: as §1

HepG2 = assay: as above; assay type: cell-based; conditions: Homo sapiens, 24 hours, read-out: Hepatocarcinoma Cell Line IC50 Values HepG2
Method: as §1

Huh7 2H cell line = assay: Huh7 2H cell viability; assay type: cell-based; conditions: for IC50: Homo sapiens, Huh-7, 2 h
Method: as §1
The procedures of example 6 were followed except using the Huh7 2H cell line.

PI3K-gamma = biological target: T1, PI3K-gamma (Homo sapiens, UniProt P48736); assay: PI3K inhibition (Thermo Fisher Scientific); assay type: biochemical; conditions: 10-point curve, grouped by potency; read-out: IC50 P13K γ
T1 construct: Thermo Fisher Scientific-Biosciences Life Sciences Solutions, Madison, WI (contract assay service)
Method: (§2) PI3K-alpha, PI3K-beta, PI3K-gamma, and PI3K-delta inhibition activity was determined by Thermo Fisher Scientific-Biosciences Life Sciences Solutions, Madison, WI The bromodomain protein inhibition (binding domain 1 and 2 of BRD4) was determined by Reaction Biology Corp., Malvern, PA The cyclin dependent kinase inhibition on proteins such as CDK2, CDK4, CDK6, and CDK9 was determined by Reaction Biology Corp., Malvern, PA.
(§3) The compounds of the invention were characterized by their ability to inhibit the target proteins using third party vendors offering such services. PI3K-alpha, PI3K-gamma, and PI3K-delta inhibition activity was determined by Thermo Fisher Scientific-Biosciences Life Sciences Solutions, Madison, WI. […] NI=no inhibition detected up to 50 μM or IC50 not reached at 50 μM. ND=not done.

PI3K-delta = biological target: T2, PI3K-delta (Homo sapiens, UniProt O00329); assay: PI3K inhibition (Thermo Fisher Scientific); assay type: biochemical; conditions: 10-point curve, grouped by potency; read-out: IC50 P13K δ
T2 construct: Thermo Fisher Scientific-Biosciences Life Sciences Solutions, Madison, WI (contract assay service)
Method: as §2, §3

PI3K-alpha = biological target: T3, PI3K-alpha (Homo sapiens, UniProt P42336); assay: PI3K inhibition (Thermo Fisher Scientific); assay type: biochemical; conditions: 10-point curve, grouped by potency; read-out: IC50 P13K α
T3 construct: Thermo Fisher Scientific-Biosciences Life Sciences Solutions, Madison, WI (contract assay service)
Method: PI3K-alpha, PI3K-gamma, and PI3K-delta inhibition activity was determined by Thermo Fisher Scientific-Biosciences Life Sciences Solutions, Madison, WI. The bromodomain protein inhibition (binding domain 1 and 2 of BRD4 was determined by Reaction Biology Corp., Malvern, PA The cyclin dependent kinase inhibition on CDK4 and CDK6 was determined by Reaction Biology Corp., Malvern, PA Additional information on each of the above testing procedures and services is available at each company's website on the internet. The IC50 data presented below in Table 11 is calculated from a 10-point curve and is expressed in nanomolar concentration (nM) and grouped according to potency. Where multiple values have been obtained the range from lowest to highest values is presented. NI=no inhibition detected up to 50 μM or IC50 not reached at 50 μM. ND=not done.

BRD4 binding domain 1 = biological target: T4, BRD4 binding domain 1 (Homo sapiens, UniProt O60885); assay: Bromodomain protein inhibition (Reaction Biology Corp.)
T4 construct: Reaction Biology Corp., Malvern, PA (contract assay service)
Method: as §2
(§4) The compounds of the invention were characterized by their ability to inhibit the target proteins using third party vendors offering such services. PI3K-alpha, PI3K-gamma, and PI3K-delta inhibition activity was determined by Thermo Fisher Scientific-Biosciences Life Sciences Solutions, Madison, WI. […] ND=not done.

BRD4 binding domain 2 = biological target: T5, BRD4 binding domain 2 (Homo sapiens, UniProt O60885); assay: as above
T5 construct: Reaction Biology Corp., Malvern, PA (contract assay service)
Method: as §2, §4

CDK4 = biological target: T6, CDK4 (Homo sapiens, UniProt P11802); assay: Cyclin dependent kinase inhibition (Reaction Biology Corp.); assay type: biochemical; conditions: 10-point curve, grouped by potency
T6 construct: Reaction Biology Corp., Malvern, PA (contract assay service)
Method: as §2, §3

CDK6 = biological target: T7, CDK6 (Homo sapiens, UniProt Q00534); assay: as above; assay type: biochemical; conditions: 10-point curve, grouped by potency
T7 construct: Reaction Biology Corp., Malvern, PA (contract assay service)
Method: as §2, §3

PI3 kinases = conditions: C. J. Vlahos et al., J. Biol. Chem. 1994; cited from earlier work
CDK6/Cyclin D1 = CDK6/Cyclin D1 (Homo sapiens, UniProt Q00534); conditions: Divakar et al., Leukemia 2016; cited from earlier work
CDK4/Cyclin D1 = CDK4/Cyclin D1 (Homo sapiens, UniProt P11802); conditions: Divakar et al., Leukemia 2016; cited from earlier work
Mino = assay: Mantle cell lymphoma cell viability, AlamarBlue; assay type: cell-based; conditions: Homo sapiens, MINO; 48 hours; read-out: Mantle Cell Line IC50 Values Mino
Method: (§5) Mantle cell lymphoma cell lines Granta, Mino and Jeko-1 were seeded at a density of 2500 cells/0.1 mL per well in a 96-well plate. Compounds 1 or Palbociclib were added post-plating at 50 μM-50 nM concentrations for 48 hours followed by addition of AlamarBlue® and incubation of plates at 37° C. in 5% CO2 for 6 hours. Fluorescence signals were read as emission at 590 nm after excitation at 560 nm. IC50 for each cell line was determined using Graphpad Prism software module.

Jeko-1 = assay: Mantle cell lymphoma cell viability, AlamarBlue; assay type: cell-based; conditions: Homo sapiens, JeKo-1; 48 hours; read-out: Mantle Cell Line IC50 Values Jeko-1
Method: as §5

Granta = assay: Mantle cell lymphoma cell viability, AlamarBlue; assay type: cell-based; conditions: 48 hours; read-out: Mantle Cell Line IC50 Values Granta
Method: as §5

[1] = 10-point curve, grouped by potency, read-out: IC50 BRD4-2
[2] = 10-point curve, grouped by potency, read-out: IC50 BRD4-1

T7 sequence (Q00534 whole entry): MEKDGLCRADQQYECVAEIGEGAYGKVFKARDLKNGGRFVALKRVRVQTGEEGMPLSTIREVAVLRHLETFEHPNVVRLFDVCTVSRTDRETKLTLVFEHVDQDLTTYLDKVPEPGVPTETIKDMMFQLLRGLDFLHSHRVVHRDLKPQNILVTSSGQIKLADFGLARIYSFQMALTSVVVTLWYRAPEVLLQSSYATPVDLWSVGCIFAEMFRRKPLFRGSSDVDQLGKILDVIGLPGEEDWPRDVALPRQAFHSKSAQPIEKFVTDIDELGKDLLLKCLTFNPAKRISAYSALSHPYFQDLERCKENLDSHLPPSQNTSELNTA
T7 sequence (P24385 whole entry partner): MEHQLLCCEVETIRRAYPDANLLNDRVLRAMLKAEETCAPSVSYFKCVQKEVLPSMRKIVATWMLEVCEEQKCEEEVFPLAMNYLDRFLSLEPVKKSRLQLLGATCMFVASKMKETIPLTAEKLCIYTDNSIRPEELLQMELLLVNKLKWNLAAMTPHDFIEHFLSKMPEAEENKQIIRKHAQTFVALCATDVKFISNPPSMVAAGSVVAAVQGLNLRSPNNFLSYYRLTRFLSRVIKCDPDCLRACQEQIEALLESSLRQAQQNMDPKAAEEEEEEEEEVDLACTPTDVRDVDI
T6 sequence (P11802 whole entry): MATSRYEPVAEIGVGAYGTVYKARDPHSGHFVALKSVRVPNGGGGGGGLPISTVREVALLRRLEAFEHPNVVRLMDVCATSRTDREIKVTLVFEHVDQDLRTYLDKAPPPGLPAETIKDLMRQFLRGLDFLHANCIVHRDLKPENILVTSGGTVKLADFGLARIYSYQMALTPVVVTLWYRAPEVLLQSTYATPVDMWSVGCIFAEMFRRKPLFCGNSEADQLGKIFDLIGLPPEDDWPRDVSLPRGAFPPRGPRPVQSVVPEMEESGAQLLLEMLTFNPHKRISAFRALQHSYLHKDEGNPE
T6 sequence (P24385 whole entry partner): as the sequence (P24385 whole entry partner) above
T1 sequence (P48736 whole entry): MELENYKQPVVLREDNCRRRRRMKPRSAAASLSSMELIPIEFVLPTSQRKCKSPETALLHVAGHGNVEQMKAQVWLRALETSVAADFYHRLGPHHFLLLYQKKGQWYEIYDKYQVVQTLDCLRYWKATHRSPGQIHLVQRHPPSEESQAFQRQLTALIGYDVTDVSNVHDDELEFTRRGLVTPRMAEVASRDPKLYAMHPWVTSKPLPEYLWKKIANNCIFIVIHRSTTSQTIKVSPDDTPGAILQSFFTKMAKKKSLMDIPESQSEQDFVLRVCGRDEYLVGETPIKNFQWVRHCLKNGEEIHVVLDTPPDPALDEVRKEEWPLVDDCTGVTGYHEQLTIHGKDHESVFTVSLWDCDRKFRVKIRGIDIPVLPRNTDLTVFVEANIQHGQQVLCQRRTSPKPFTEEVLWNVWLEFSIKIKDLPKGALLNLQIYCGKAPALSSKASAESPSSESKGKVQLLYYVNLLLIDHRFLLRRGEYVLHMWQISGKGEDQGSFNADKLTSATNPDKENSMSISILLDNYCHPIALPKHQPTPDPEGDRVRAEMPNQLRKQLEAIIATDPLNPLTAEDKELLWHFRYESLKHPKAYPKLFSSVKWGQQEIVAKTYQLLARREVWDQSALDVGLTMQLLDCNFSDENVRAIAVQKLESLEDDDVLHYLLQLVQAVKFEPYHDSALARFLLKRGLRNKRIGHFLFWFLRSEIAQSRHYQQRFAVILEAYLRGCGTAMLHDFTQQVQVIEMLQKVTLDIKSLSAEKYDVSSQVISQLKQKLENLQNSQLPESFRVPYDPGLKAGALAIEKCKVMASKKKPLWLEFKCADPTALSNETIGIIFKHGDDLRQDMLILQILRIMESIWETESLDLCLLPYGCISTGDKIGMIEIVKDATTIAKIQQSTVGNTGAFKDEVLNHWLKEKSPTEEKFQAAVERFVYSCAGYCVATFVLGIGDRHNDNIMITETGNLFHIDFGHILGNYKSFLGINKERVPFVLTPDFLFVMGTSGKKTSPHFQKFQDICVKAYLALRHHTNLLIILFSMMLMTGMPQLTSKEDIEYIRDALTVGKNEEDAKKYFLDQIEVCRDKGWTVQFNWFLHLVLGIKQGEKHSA
T3 sequence (P42336 whole entry): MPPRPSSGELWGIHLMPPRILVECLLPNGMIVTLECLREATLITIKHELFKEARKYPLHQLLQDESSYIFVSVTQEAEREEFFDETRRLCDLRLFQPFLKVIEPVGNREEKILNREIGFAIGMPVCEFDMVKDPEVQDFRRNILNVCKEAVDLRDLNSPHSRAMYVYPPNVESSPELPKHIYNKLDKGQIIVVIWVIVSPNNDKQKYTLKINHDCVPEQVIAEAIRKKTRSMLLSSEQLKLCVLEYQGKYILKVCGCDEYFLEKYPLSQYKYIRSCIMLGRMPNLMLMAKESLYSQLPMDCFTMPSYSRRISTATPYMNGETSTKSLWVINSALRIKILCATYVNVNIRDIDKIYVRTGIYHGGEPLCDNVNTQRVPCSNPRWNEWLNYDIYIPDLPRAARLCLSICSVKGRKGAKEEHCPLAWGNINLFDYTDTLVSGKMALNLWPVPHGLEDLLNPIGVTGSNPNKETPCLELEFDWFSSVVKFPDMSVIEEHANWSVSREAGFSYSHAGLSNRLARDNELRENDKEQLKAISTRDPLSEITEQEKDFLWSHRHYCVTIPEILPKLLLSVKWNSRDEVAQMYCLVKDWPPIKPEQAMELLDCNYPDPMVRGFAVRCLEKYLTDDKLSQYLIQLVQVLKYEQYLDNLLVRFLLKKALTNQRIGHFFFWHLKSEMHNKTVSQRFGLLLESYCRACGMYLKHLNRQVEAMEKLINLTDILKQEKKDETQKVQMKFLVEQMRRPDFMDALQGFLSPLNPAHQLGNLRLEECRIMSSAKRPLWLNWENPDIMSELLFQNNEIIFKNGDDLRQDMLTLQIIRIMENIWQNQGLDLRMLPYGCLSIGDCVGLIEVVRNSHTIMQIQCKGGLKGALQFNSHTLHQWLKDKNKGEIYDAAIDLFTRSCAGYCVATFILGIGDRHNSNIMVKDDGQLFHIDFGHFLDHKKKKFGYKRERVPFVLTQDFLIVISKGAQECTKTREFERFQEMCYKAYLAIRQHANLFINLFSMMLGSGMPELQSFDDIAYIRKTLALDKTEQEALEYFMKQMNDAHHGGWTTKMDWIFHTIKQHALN
T3 sequence (P27986 whole entry partner): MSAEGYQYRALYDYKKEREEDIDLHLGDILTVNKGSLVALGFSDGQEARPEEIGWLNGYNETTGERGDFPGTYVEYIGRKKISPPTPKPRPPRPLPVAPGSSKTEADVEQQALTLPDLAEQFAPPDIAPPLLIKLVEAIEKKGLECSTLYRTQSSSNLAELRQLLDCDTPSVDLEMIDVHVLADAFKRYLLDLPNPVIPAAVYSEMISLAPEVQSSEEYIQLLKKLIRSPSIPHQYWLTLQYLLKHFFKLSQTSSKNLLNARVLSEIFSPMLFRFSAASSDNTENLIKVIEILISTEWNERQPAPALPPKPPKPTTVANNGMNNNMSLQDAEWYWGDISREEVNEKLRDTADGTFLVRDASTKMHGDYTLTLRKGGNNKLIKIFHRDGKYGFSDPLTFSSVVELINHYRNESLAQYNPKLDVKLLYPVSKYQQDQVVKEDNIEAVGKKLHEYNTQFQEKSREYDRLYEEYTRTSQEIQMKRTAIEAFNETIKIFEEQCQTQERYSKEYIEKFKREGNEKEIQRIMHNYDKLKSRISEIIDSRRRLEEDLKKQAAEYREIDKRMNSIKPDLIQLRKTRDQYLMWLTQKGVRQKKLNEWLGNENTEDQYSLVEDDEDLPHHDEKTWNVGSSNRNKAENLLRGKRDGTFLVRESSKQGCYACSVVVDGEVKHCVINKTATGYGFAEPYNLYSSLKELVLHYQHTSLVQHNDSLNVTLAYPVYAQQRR
T2 sequence (O00329 whole entry): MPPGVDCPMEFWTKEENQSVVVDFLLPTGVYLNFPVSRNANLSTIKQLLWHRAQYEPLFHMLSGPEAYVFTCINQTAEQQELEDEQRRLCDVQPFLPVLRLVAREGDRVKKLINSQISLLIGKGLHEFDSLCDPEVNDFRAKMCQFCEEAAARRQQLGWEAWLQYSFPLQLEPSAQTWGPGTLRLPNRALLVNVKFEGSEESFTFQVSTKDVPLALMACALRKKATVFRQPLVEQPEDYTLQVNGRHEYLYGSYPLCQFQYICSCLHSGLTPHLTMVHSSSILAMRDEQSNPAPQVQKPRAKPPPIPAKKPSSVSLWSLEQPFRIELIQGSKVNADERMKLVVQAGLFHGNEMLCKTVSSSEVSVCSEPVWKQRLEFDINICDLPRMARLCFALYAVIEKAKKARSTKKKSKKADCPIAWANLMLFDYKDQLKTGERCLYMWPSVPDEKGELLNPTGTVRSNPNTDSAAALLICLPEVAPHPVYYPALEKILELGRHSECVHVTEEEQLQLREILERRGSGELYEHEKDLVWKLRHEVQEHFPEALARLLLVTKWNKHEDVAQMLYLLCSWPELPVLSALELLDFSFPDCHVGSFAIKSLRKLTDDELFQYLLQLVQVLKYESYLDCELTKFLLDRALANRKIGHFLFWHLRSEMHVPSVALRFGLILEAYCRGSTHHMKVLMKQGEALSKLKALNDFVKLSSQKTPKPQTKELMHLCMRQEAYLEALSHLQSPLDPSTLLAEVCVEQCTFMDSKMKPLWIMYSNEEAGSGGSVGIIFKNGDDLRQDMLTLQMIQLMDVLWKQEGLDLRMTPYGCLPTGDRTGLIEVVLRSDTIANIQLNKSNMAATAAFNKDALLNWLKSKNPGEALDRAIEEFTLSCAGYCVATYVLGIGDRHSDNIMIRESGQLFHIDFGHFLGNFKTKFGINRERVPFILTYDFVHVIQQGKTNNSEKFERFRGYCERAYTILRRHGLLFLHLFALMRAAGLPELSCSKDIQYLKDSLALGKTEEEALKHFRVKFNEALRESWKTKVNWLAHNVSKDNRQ
T2 sequence (P27986 whole entry partner): as the sequence (P27986 whole entry partner) above
Chain of CDK6/Cyclin D1 (Q00534 whole entry, species assumed): as the sequence (Q00534 whole entry) above
Chain of CDK6/Cyclin D1 (P24385 whole entry partner, species assumed): as the sequence (P24385 whole entry partner) above

O=c1cc(N2CCOCC2)oc2c(-c3ccc4c(c3)OCCO4)csc12 [Compound 0, reference compound]
IC50 (Huh7): 14.3 µM | IC50 (Hep3B): 6.6 µM | IC50 (HepG2): 5 µM | IC50 (Huh7 2H cell line): 2.97 to 5.9 µM

CN(C)C(=O)c1cc2cnc(Nc3ccc(-c4csc5c(=O)cc(N6CCOCC6)oc45)cn3)nc2n1C1CCCC1 [Compound 3, {1-Cyclopentyl-6-[5-(5-morpholino-7-oxo-4-oxa-1-thia-3-indenyl)-2-pyridylamino]-1,5,7-triaza-1H-inden-2-yl}(dimethylamino)formaldehyde]
IC50 (PI3K-gamma): 0.1 to 1 µM | IC50 (PI3K-delta): < 0.1 µM | IC50 (PI3K-alpha): 0.1 to 1 µM | IC50 BRD4-1 (BRD4 binding domain 1; 10-point curve, grouped by potency): * to ** | IC50 (BRD4 binding domain 2; [1]): 0.1 to 1 µM | IC50 (CDK4): < 0.1 µM | IC50 (CDK6): < 0.1 µM

COC(=O)c1cc(-c2csc3c(=O)cc(N4CCOCC4)oc23)ccc1Nc1ncc2cc(C(=O)N(C)C)n(C3CCCC3)c2n1 [Compound 4, Methyl 2-[1-cyclopentyl-2-(dimethylamino)carbonyl-1,5,7-triaza-1H-inden-6-ylamino]-5-(5-morpholino-7-oxo-4-oxa-1-thia-3-indenyl)benzoate]
IC50 (PI3K-gamma): 1 to 5 µM | IC50 (PI3K-delta): 0.1 to 1 µM | IC50 (PI3K-alpha): 0.1 to 1 µM | IC50 (BRD4 binding domain 1; [2]): 0.1 to 1 µM | IC50 (BRD4 binding domain 2; [1]): 1 to 5 µM | IC50 (CDK4): > 50 µM | IC50 (CDK6): > 50 µM

Cc1nc2c(F)cc(-c3nc(Nc4ccc(-c5csc6c(=O)cc(N7CCOCC7)oc56)cc4)ncc3F)cc2n1C(C)C [Compound 5, 3-{p-[5-Fluoro-4-(7-fluoro-3-isopropyl-2-methyl-1,3-diaza-3H-inden-5-yl)-2-pyrimidinylamino]phenyl}-5-morpholino-4-oxa-1-thia-7-indenone]
IC50 (PI3K-gamma): > 50 µM | IC50 (PI3K-delta): 1 to 5 µM | IC50 (PI3K-alpha): 5 to 50 µM | IC50 (BRD4 binding domain 1; [2]): > 50 µM | IC50 (BRD4 binding domain 2; [1]): > 50 µM | IC50 (CDK4): < 0.1 µM | IC50 (CDK6): < 0.1 µM

CC(=O)c1c(C)c2cnc(Nc3ccc(-c4csc5c(=O)cc(N6CCOCC6)oc45)cc3)nc2n(C2CCCC2)c1=O [Compound 6, 1-{8-cyclopentyl-5-methyl-2-[p-(5-morpholino-7-oxo-4-oxa-1-thia-3-indenyl)phenylamino]-7-oxo-1,3,8-triaza-8H-naphth-6-yl}-1-ethanone]
IC50 (PI3K-gamma): 1 to 5 µM | IC50 (PI3K-delta): < 0.1 µM | IC50 (PI3K-alpha): < 0.1 µM | IC50 (BRD4 binding domain 1; [2]): 0.1 to 1 µM | IC50 (BRD4 binding domain 2; [1]): 0.1 to 1 µM | IC50 (CDK4): < 0.1 µM | IC50 (CDK6): < 0.1 µM

COC(=O)c1cc(Nc2ncc3cc(C(=O)N(C)C)n(C4CCCC4)c3n2)ccc1-c1csc2c(=O)cc(N3CCOCC3)oc12 [Compound 7, Methyl 5-[1-cyclopentyl-2-(dimethylamino)carbonyl-1,5,7-triaza-1H-inden-6-ylamino]-2-(5-morpholino-7-oxo-4-oxa-1-thia-3-indenyl)benzoate]
IC50 (PI3K-gamma): 1 to 5 µM | IC50 (PI3K-delta): < 0.1 µM | IC50 (PI3K-alpha): 0.1 to 1 µM | IC50 (BRD4 binding domain 1; [2]): 0.1 to 1 µM | IC50 (BRD4 binding domain 2; [1]): 0.1 to 1 µM | IC50 (CDK4): < 0.1 µM | IC50 (CDK6): < 0.1 µM

CN(C)C(=O)c1cc2cnc(Nc3ccc(-c4csc5c(=O)cc(N6CCOCC6)oc45)c(C(=O)O)c3)nc2n1C1CCCC1 [Compound 10, 5-[1-Cyclopentyl-2-(dimethylamino)carbonyl-1,5,7-triaza-1H-inden-6-ylamino]-2-(5-morpholino-7-oxo-4-oxa-1-thia-3-indenyl)benzoic acid]
IC50 (PI3K-gamma): 0.1 to 1 µM | IC50 (PI3K-delta): 0.1 to 1 µM | IC50 (PI3K-alpha): < 0.1 µM | IC50 (BRD4 binding domain 1; [2]): < 0.1 µM | IC50 (BRD4 binding domain 2; [1]): 0.1 to 1 µM | IC50 (CDK4): 5 to 50 µM | IC50 (CDK6): 5 to 50 µM

CN(C)C(=O)c1cc2cnc(Nc3ccc(-c4csc5c(=S)cc(N6CCOCC6)oc45)cc3)nc2n1C1CCCC1 [Compound 11, {1-Cyclopentyl-6-[p-(5-morpholino-7-thioxo-4-oxa-1-thia-3-indenyl)phenylamino]-1,5,7-triaza-1H-inden-2-yl}(dimethylamino)formaldehyde]
IC50 (PI3K-gamma): 5 to 50 µM | IC50 (PI3K-delta): 0.1 to 1 µM | IC50 (PI3K-alpha): 0.1 to 1 µM | IC50 (BRD4 binding domain 1; [2]): 1 to 5 µM | IC50 (BRD4 binding domain 2; [1]): 1 to 5 µM | IC50 (CDK4): < 0.1 µM | IC50 (CDK6): < 0.1 µM

CN(C)C(=S)c1cc2cnc(Nc3ccc(-c4csc5c(=S)cc(N6CCOCC6)oc45)cc3)nc2n1C1CCCC1 [Compound 12, 7-Cyclopentyl-N,N-dimethyl-2-((4-(5-morpholino-7-thioxo-7H-thieno[3,2-b]pyran-3-yl)phenyl)amino)-7H-pyrrolo[2,3-d]pyrimidine-6-carbothioamide]
IC50 (PI3K-gamma): 5 to 50 µM | IC50 (PI3K-delta): 0.1 to 1 µM | IC50 (PI3K-alpha): 0.1 to 1 µM | IC50 (BRD4 binding domain 1; [2]): 5 to 50 µM | IC50 (BRD4 binding domain 2; [1]): 5 to 50 µM | IC50 (CDK4): 0.1 to 1 µM | IC50 (CDK6): 0.1 to 1 µM

CN(C)C(=O)c1cc2cnc(Nc3ccc(-c4csc5c(=O)cc(N6CCN(C(=O)OC(C)(C)C)CC6)oc45)cc3)nc2n1C1CCCC1 [Compound 18]
IC50 (PI3K-gamma): 1 to 5 µM | IC50 (PI3K-delta): 0.1 to 1 µM | IC50 (PI3K-alpha): 5 to 50 µM | IC50 (BRD4 binding domain 1; [2]): 0.1 to 1 µM | IC50 (BRD4 binding domain 2; [1]): 1 to 5 µM | IC50 (CDK4): < 0.1 µM | IC50 (CDK6): < 0.1 µM

O=c1cc(N2CCOCC2)oc2c(-c3ccccc3)cccc12 [LY294002, 2-(4-morpholinyl)-8-phenyl-4H-1-benzopyran-4-one]
IC50 (PI3 kinases): 1.4 µM

CN1CCN(c2ccc(Nc3ncc4cc(C#N)c(=O)n(C5CCCC5)c4n3)cc2)CC1 [ON123300, reference compound]
IC50 (CDK6/Cyclin D1): 0.00982 µM | IC50 (CDK4/Cyclin D1): 0.00387 µM | IC50 (BRD4 binding domain 1; read-out: IC50 BRD4 binding domain 1): 45.6 µM | IC50 (BRD4 binding domain 2; read-out: IC50 BRD4 binding domain 2): > 50 µM

CC(=O)c1c(C)c2cnc(Nc3ccc(N4CCNCC4)cn3)nc2n(C2CCCC2)c1=O [Palbociclib, reference compound]
IC50 (Huh7 2H cell line): 9.2 µM | times less potent than Compound 1, Huh7 2H (Huh7 2H cell line; ratio of IC50 values): about 18 times | IC50 (Mino): 47.9 µM | IC50 (Jeko-1): 7.43 µM | IC50 (Granta): 10.2 µM

CN(C)C(=O)c1cc2cnc(Nc3ccc(-c4csc5c(=O)cc(N6CCNCC6)oc45)cc3)nc2n1C1CCCC1 [compound 2, (1-Cyclopentyl-6-{p-[7-oxo-5-(1-piperazinyl)-4-oxa-1-thia-3-indenyl]phenylamino}-1,5,7-triaza-1H-inden-2-yl)(dimethylamino)formaldehyde hydrochloride]
IC50 (PI3K-gamma): 5 to 50 µM | IC50 (PI3K-delta): 5 to 50 µM | IC50 (PI3K-alpha): 5 to 50 µM | IC50 (BRD4 binding domain 1; [2]): 0.1 to 1 µM | IC50 (BRD4 binding domain 2; [1]): 0.1 to 1 µM | IC50 (CDK4): < 0.1 µM | IC50 (CDK6): < 0.1 µM
